Reference: patent US7501523B2, “Method for preparing cucurbiturils” (NewSouth Innovations Pty Limited, priority 2003, dated 2009)

Key:
[1] = association constant of methane in the cucurbituril; format: binding; settings: relative to decamethylcucurbit[5]uril
[2] = association constant of dioxane in the cucurbituril; format: binding; settings: relative to tetramethylcucurbit[2,4]uril
solubility in water = format: physicochemical; settings: compared with unsubstituted cucurbit[6]uril

dimethylcucurbit[1,4]uril
association constant of methane [1]: three times higher

unsubstituted cucurbit[6]uril
association constant of dioxane [2]: two times higher

α, δ-tetramethylcucurbit[2,4]uril
solubility in water (solubility in water): greater solubility in water than unsubstituted cucurbit[6]uril
